Marks after values point to notes of the source that are not given here.

For experiment [1], the system named is rats treated with (25-35) β-amyloid fragment. Briefly: Neuronal density / cell death in brain sections, (25-35) β-amyloid fragment rat model. The format is in vivo. The note with it: days 7, 10, 13. The procedure: The effect of 5.0 μg FGL per administration per rat, administered sub-occipitally on days 7, 10 and 13 after (25-35) β-amyloid (A-β) fragment-induced toxicity, on neuronal cell death in the CA3 zone of the rat hippocampus. The number of animals in the groups varied from 4 to 8.
(§1) The number of animals in the groups varied from 4 to 8.
as §1
Behaviour of animals was evaluated using the Social Recognition test, the Open Field test or the Light-dark Discriminating γ-maze. On day 28-30 or day 51 after i.c.v. administration of the (25-35) β-amyloid fragment, the animals were sacrificed, and in selected studies, the brain tissue was collected, histological sections were immunostained with A-β specific antibodies and the amyloid-burden was calculated as a percentage of the A-βpositive area. In addition, the number of neurons in selected areas of brain-sections was calculated using a stereological approach.

Experiment [2] has the same test system. Briefly: Social Recognition test, (25-35) β-amyloid fragment rat model. The format is in vivo. Conditions: days 7, 10, 13. The procedure: The results are from the experiment in which the suboccipital administration of 5.0 μg FGL per administration per rat was done at days 7, 10, and 13 after A-β-induced neurotoxicity. […] The number of animals in the groups varied from 4 to 22. The results were analysed using one-way ANOVA (F(2,27)=15.4, P<0.0001) and significance of results was contingent on achieving a p-value of less than 0.05 (**p<0.01), when compared to the A-β/V group (Newman-Keuls post-test). […] FGLcontrol as above.
[…] The number of animals per group varied from 4 to 5. The results were analysed using unpaired t-test and significance of results was contingent on achieving a p-value of less than 0.05 (*p<0.05), when compared to the A-β/N group. […]
The present study employed a rat model, in which neurotoxicity and cognitive impairment were induced by the (25-35) β-amyloid peptide fragment (see Maurice T., et al. (1996) (Brain Res. 706:181-93) and Delobette S., et al. (1997) Eur J Pharmacol. 319:1-4). […] Short-term memory deficit in rats was evaluated using three different behavioural tests: the Social Recognition (Kogan et al, (2000) Hippocampus 10:47-56), Open Field (Cerbone and Sadile, (1994) Neurosci Biobehav Rev. 18:497-518; Vianna et al, (2000) Learn Mem. 7:333-40) and Y-maze (Clayton & Williams, (2000) Neurobiol Learn Mem. 74:135-45) tests. […]

Experiment [3] has as its system dopaminergic neurons. As to the kind of experiment: Survival of dopaminergic neurons exposed to 6-OHDA. The experiment is classed as cell-based, rat. As to the method:
Dopaminergic neurons (DN) (a and b) from day 15 rat embryos grown at a density of 150,000 cells/cm^2 for six days without or with various concentrations of peptide on 24-well cell culture plates coated with poly-D-lysine were exposed to 100 μM 6-OHDA for two hours. Medium was changed and various concentrations of FGLd were added. The neurons were grown for another 24 hours before the cultures they were fixed and immunostained for tyrosine hydroxylase.
Dopaminergic neurons were prepared from Wistar rat embryos at embryonic day 15 (Charles River, Sulzfeld, Germany or Møllegaard, Denmark). A pregnant rat was sacrificed and the uterus was taken out and kept on ice in Hank's balanced salt solution (HBSS; Gibco, BRL). The ventral part of the mesencephalon was dissected from the embryonic brains, homogenised on ice in Gey's balanced salt solution (GBSS; Gibco, BRL) supplemented with 5 g glucose/l (Sigma-Aldrich) and thereafter trypsinised. The dissociated cells were washed in the presence of DNAse 1 and soybean trypsin inhibitor (Sigma-Aldrich).
For the survival assay isolated neurons were seeded at a density of 150,000 cells/cm^2 in 24-well cell culture plates coated with poly-D-lysine as described above. The neurons were left to differentiate for six days without or with various concentrations of the FGL peptide, after which 6-OHDA was added at a concentration of 100 μM for two hours. A stock solution was prepared by dissolving 6-OHDA to a concentration of 10 mM in 0.1% (w/v) sodium metabisulfite in order to prevent oxidation. After two hours with 6-OHDA, the medium was changed to Neurobasal medium with supplements and peptide, and the cell cultures were further incubated for 24 hours, fixed and immunostained for tyrosine hydroxylase. 98 images for each experimental condition in each individual experiment were automatically recorded as described for the dopaminergic neurite outgrowth assay below.

Experiment [4] relates to dopaminergic neurons. As to the kind of experiment: Neurite outgrowth, dopaminergic neurons. The experiment is classed as cell-based, rat. Conditions: 72 h; for Effect on Neurite Length (Percent Increase vs. Control): DN E14. The procedure:
The cultures were subsequently immunostained for tyrosine hydroxylase. Hippocampal neurons and CGN were plated at a density of 10,000 cells/cm^2 on 8-well permanox chamber slides and incubated for 24 hours in the presence of various concentrations of FGLd. Subsequently the neurons were immunostained for GAP-43. Results from at least five independent experiments for each neuronal culture are shown as percentage ±SEM with the untreated controls set at 100%. *p<0.05, **p<0.01, ***p<0.001 when compared to the controls.
After 72 hours of incubation, the neurons were fixed with 4% (v/v) formaldehyde and immunostained using a primary mouse monoclonal antibody against tyrosine hydroxylase and secondary biotinylated sheep anti-mouse antibodies followed by incubation with peroxidase conjugated streptavidin. 98 images for each experimental condition in each individual experiment were automatically recorded using a computerised microscope workstation described by Walmod et al. (2002) Toxicol Appl Pharmacol. 181:1-15. Briefly, the workstation consisted of an Eclipse TE 300 inverted microscope (Nikon, Tokyo, Japan) equipped with a motorised, movable microscope stage (LUDL Electronic Production Ltd, Hawthorne, N.Y., USA), a 10× objective and a 1100 analogue b/w CCD video camera (DFA, Denmark). A software package Prima developed at the Protein Laboratory (Copenhagen University, Denmark) was used to make a stereologically based determination of neurite length according to Rønn et al., (2000) J Neurosci Methods. 100:25-32).

On to “FGLd: MAP-type dendrimer of FGL; dendrimeric tetramer of the FGL peptide (EVYVVAENQQGKSKA)”, for which, in experiment [1] (Study 1, sub-occipital), the “neuro-histopathology evaluation of the CA3 area of hippocampus” value is recorded as “no significant effect”. The “density of neurons in the CA3 zone of the hippocampus” value in experiment [1] (Study 2, sub-occipital 5 μg, β-amyloid only 15) is 22 neurons/mcm^2×10^−4. In experiment [2] (Study 1, sub-occipital, tested at day 14), the “Social Recognition test” value is reported as “No effect”. For the same substance, the “Social Recognition test, time exploring a juvenile rat during the second trial” value in experiment [2] (Study 2, sub-occipital 5 μg, vs β-amyloid fragment only) is “significantly reduced the increased time spent”. The “Neuronal Survival (% of Control)” value in the experiment with dopaminergic neurons [3] (6-OHDA, DA (E14), 1 μg/mL) is recorded as 143%* % of Control. Besides, the “survival of dopaminergic neurons treated with 6-OHDA, maximal rescue” value with dopaminergic neurons [3] (at 1 μg/ml, 6-OHDA-treated control = 100%) is listed as “approximately 135%”. Further, the “Effect on Neurite Length (Percent Increase vs. Control)” value came to 12% with dopaminergic neurons [4] (0.04 μg/mL), 23% with dopaminergic neurons [4] (0.2 μg/mL), 24% with dopaminergic neurons [4] (1 μg/mL) and 13% with dopaminergic neurons [4] (5 μg/mL). The “maximal average neurite length, dopaminergic neurons” value with dopaminergic neurons [4] (at 1 μg/ml, untreated control = 100%) worked out at 125%.

For the origin of these results see US20090105149A1, “Compounds comprising lpa” (ENKAM PHARMACEUTICALS A/S, priority 2003, published 2009).
